These results are taken from patent publication US9486536B2 (Immunomedics, Inc., priority 2013, dated 2016).

For data set [1] the following is noted: relative to doxorubicin; cited from earlier work.
Data set [2] concerns Non-Hodgkin's Lymphoma (NHL). The data set can be described thus: treatment of NHL patients. Format: in vivo, human. The method, then: A P2PDox-epratuzumab ADC is prepared as described in Examples 1 and 3 above. Seventeen patients with previously untreated or relapsed NHL receive 4 doses of 70, 100 or 150 mg P2PDox-epratuzumab injected i.v. every two weeks. Responses are assessed by CT scans, with other evaluations including adverse event, B-cell blood levels, serum epratuzumab levels and human anti-epratuzumab (HAHA) titers.

A further data set deals with CD22 (Homo sapiens, UniProt P20273). The data set is described as follows: antibody binding to target antigen after conjugation.
The test system of data set [3] is Daudi, Raji, Ramos and JVM-3 hematopoietic tumor lines. The data set is described as follows: cytotoxicity of P2PDox-mAb conjugates to target cells. Type of data set: cell-based. As to conditions: not shown. The text has this: The cytotoxicity of P2PDox-mAb conjugates to target cells was examined. hRS7-P2PDox and hMN-15-P2PDox were cytotoxic to MDA-MB-468, AG S, NCI-N87 and Capan-1 solid tumor cell lines (not shown). hMN-14-P2PDox was cytotoxic to Capan-1, BxPC-3 and AsPC-1 human pancreatic tumor lines and AGS, NCI-N87 and LS147T human gastric and colonic tumor lines (not shown). hLL2-P2PDOx was cytotoxic to Daudi, Raji, Ramos and JVM-3 hematopoietic tumor lines (not shown). IC50 values for the conjugates were in the nanomolar concentration range (not shown).

In another data set the test system is moderately active SLE. The data set can be described thus: open-label study in SLE patients. The method, then:
An open-label, single-center study of patients with moderately active SLE (total British Isles Lupus Assessment Group (BILAG) score 6 to 12) is conducted. Patients receive dosages of epratuzumab-P2PDox (conjugated at a drug/antibody ratio of 3.5) of 10, 20, 40 and 60 mg conjugate i.v. every other week for 3 injections, repeated 4 months later. Evaluations include safety, SLE activity (BILAG), blood levels of B and T cells, and human anti-epratuzumab antibody (HAHA) titers.

[4] abbreviates: 4 doses of 70, 100 or 150 mg i.v. every two weeks, 17 patients.

Take `COc1cccc2c1C(=O)c1c(O)c3c(c(O)c1C2=O)C[C@@](O)(C(=O)CO)C[C@@H]3O[C@H]1C[C@H](N2C=CCC2)[C@H](O)[C@H](C)O1` [2-pyrrolinodoxorubicin]: the “cytotoxicity, times that of doxorubicin” value in data set [1] is on record as 500-1000 times.
hLL2-P2PDox: in data set [2] (setting [4]), the “complete response/complete response unconfirmed rate” value is recorded as 24% and the objective response rate amounted to 47%. In addition, in data set [2] (all dosage levels), the “transient B-cell depletion” value is given as “up to 25%”. Further, in data set [2] (human, in vivo), the “human anti-epratuzumab antibody (HAHA) in serum samples” value was “negative” and the “objective responses continuing for 30 weeks or more” value is “Four of the eight”. Moreover, the safety issues entry in data set [2] (reversible after interrupting therapy) is listed as “neutropenia up to Grade 3”. Also, the “effect of conjugation on antibody binding” value with CD22 was “lack of effect of conjugation on antibody binding to target antigen”. The cytotoxicity result in data set [3] is reported as “cytotoxic”. Also, the “decrease of total BILAG scores” value with moderately active SLE (all patients, 10, 20, 40 and 60 mg i.v. every other week for 3 injections, drug/antibody ratio 3.5) is reported as “at least 50%”. Further, the “patients with improvement in at least one BILAG B- or C-level disease activity” value in the data set with moderately active SLE (at 6, 10 and 18 weeks) was determined as 93%. Moreover, in the data set on moderately active SLE (at 18 weeks), the “average decrease of B-cell levels” value stood at 35%. Besides, in the data set on moderately active SLE (human, in vivo), the “patients with BILAG decreases continuing to at least 18 weeks” value is given as 92% and the tolerability result is “well tolerated”.
